From US10925876B2, “Methods for using triazolo-pyrazinyl soluble guanylate cyclase activators in fibrotic disorders” (Merck Sharp & Dohme Corp., priority 2016, dated 2021)

Molecular target: T1, sGC α1/β1 heterodimer (Homo sapiens, UniProt Q02108+Q02153)
T1 construct: expressed in transfected cells
T1 sequence (Q02108 1-690): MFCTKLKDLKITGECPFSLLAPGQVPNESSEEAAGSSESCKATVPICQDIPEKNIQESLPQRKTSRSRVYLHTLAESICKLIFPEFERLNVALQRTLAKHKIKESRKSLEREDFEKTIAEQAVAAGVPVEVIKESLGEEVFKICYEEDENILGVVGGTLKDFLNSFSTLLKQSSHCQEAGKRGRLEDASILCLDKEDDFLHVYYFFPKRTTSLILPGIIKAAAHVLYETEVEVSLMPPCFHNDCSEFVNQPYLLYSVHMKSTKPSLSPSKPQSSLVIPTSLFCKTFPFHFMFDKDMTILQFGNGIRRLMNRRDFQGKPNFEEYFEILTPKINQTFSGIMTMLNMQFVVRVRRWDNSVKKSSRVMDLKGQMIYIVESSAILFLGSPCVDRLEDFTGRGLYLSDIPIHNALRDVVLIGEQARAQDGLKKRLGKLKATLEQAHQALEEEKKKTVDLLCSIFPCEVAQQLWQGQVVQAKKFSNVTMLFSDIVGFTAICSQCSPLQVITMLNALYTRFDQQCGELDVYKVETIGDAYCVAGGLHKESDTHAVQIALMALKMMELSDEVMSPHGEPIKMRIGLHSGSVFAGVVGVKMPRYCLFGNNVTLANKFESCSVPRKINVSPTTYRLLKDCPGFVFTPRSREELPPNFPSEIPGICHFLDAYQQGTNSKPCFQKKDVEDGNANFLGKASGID
T1 sequence (Q02153 1-619): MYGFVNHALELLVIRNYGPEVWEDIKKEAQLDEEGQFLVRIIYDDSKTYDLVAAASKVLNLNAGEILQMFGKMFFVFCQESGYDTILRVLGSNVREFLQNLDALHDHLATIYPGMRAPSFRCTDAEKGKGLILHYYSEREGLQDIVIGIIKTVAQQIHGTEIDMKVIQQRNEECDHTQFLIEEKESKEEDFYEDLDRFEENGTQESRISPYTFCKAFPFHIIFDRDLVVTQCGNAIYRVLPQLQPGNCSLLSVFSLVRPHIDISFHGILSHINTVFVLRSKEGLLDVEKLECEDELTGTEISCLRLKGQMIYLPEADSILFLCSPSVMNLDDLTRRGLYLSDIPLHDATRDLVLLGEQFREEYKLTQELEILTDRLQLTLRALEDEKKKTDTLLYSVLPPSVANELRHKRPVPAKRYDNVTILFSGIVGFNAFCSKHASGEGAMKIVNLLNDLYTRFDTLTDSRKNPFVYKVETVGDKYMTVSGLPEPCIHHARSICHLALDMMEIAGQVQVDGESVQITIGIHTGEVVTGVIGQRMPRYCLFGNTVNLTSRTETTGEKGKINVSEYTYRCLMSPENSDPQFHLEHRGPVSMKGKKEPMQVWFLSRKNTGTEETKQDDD
Assay: Cell-Based sGC Functional Assay (CASA Assay), cGMP generation in CHO-K1/sGC cells
Conditions: maximum cGMP production of Compound A set to 100% activation, read-out: % Act. (percent activation relative to Compound A)
Description: sGC is a heme-containing enzyme that converts GTP to secondary messenger cGMP. Increases in cGMP levels affect several physiological processes including vasorelaxation through multiple downstream pathways. […] Heme-dependent activators (HDAs) preferentially activate sGC containing a ferrous heme group. To determine the effect of sGC activators on enzyme activity, the CASA assay was developed to monitor the generation of cGMP in a cell line that stably expresses the heterodimeric sGC protein.
A CHO-K1 cell line stably expressing the sGC α1/β1 heterodimer was generated using a standard transfection protocol. CHO-K1 cells were transfected with plasmids pIREShyghsGCα1 and pIRESneo-hsGCβ1 simultaneously using FUGENE reagent. Clones that stably express both subunits were selected with hygromycin and neomycin for ˜2 weeks. Clone #7 was chosen for the assay and was designated CHO-K1/sGC. CHO-K1/sGC cells were maintained in F-K12 medium containing 10% heat-inactivated Fetal Bovine Serum (FBS), 100 μg/mL penicillin/streptomycin, 0.5 mg/mL hygromycin and 0.25 mg/mL G418. The cells were then cryopreserved in LN2. On the day of the assay, cells thawed and resuspended in EBSS Assay Buffer (Sigma, E3024) supplemented with 5 mM MgCl2, 10 mM HEPES (4-(2-hydroxyethyl)piperazine-1-ethanesulfonic acid) and 0.05% BSA (bovine serum albumin) (EAB) and cell density was then adjusted to 4×10^5/mL with EAB. IBMX (3-isobutyl-1-methylxanthin, 0.5 mM) was added to inhibit degradation of cGMP. Compounds were diluted from DMSO stock solutions and added to the assay at a final DMSO concentration of 2.5%. Cells were incubated with compounds in the presence and absence of 1 μM of Diethylenetriamine/nitric oxide adduct (DETA-NO; Sigma, 17018) for 1 hr at 37° C. At the end of the incubation period, the reaction was terminated and the cells were lysed with the detection reagents from Cisbio Kits. The level of intracellular cGMP was determined using an HTRF-based assay kit (CisBio, 62GM2PEC), which detects the displacement of a fluorescence labeled cGMP from its specific antibody. The cGMP produced by test compounds was directly compared to the maximum cGMP production (this value was set to equal 100% activation.) of the published sGC-HDA Compound A:
[drawing 298] (Example 1 in WO 2010/065275, published Jun. 10, 2010). The test compounds' activities were then expressed as a percentage of Compound A, the standard in every experiment. This percent activation was calculated either in the presence or absence of DETA-NO which was then plotted. IP and maximum fold induction was derived using ADA analysis software for 4P fit.

Compound	Emax
CC1(c2ccc(F)c(F)c2)C(=O)Nc2nc(-c3cn4ncnc4c(CCC(F)(F)F)n3)nc(N)c21 (centres unmarked) [Example 84B, 4-amino-5-(3,4-difluorophenyl)-5-methyl-2-(8-(3,3,3-trifluoropropyl)-[1,2,4]triazolo[1,5-a]pyrazin-6-yl)-5H-pyrrolo[2,3-d]pyrimidin-6(7H)-one]	101%
Cc1nc2c(CCC(F)(F)C(F)(F)F)nc(-c3nc(N)c4c(n3)NC(=O)C4(C)c3ccc(Cl)c(F)c3)cn2n1 (centres unmarked) [Example 90B, 4-amino-5-(4-chloro-3-fluorophenyl)-5-methyl-2-(2-methyl-8-(3,3,4,4,4-pentafluorobutyl)-[1,2,4]triazolo[1,5-a]pyrazin-6-yl)-5H-pyrrolo[2,3-d]pyrimidin-6(7H)-one]	135%
CCCCc1nc(-c2nc(N)c3c(n2)NC(=O)C3(c2ccc(C(F)(F)F)cn2)C2CC2)cn2ncnc12 (centres unmarked) [Example 70A, 4-amino-2-(8-butyl-[1,2,4]triazolo[1,5-a]pyrazin-6-yl)-5-cyclopropyl-5-(5-(trifluoromethyl)pyridin-2-yl)-5H-pyrrolo[2,3-d]pyrimidin-6(7H)-one]	133%
CCCc1nc(-c2nc(N)c3c(n2)NC(=O)C3(c2ccc(F)c(F)c2)C2CC2)cn2ncnc12 (centres unmarked) [Example 58A, 4-amino-5-cyclopropyl-5-(3,4-difluorophenyl)-2-(8-propyl-[1,2,4]triazolo[1,5-a]pyrazin-6-yl)-5H-pyrrolo[2,3-d]pyrimidin-6(7H)-one]	169%
Nc1nc(-c2cn3ncnc3c(CCC(F)(F)C(F)(F)F)n2)nc2c1C(c1ccc(C(F)(F)F)cn1)(C1CC1)C(=O)N2 (centres unmarked) [Example 15A, 4-amino-5-cyclopropyl-2-(8-(3,3,4,4,4-pentafluorobutyl)-[1,2,4]triazolo[1,5-a]pyrazin-6-yl)-5-(5-(trifluoromethyl)pyridin-2-yl)-5H-pyrrolo[2,3-d]pyrimidin-6(7H)-one]	139%
Nc1nc(-c2cn3ncnc3c(CCCC(F)(F)F)n2)nc2c1C(c1ccc(F)cc1)(C1CC1)C(=O)N2 (centres unmarked) [Example 30B, 4-amino-5-cyclopropyl-5-(4-fluorophenyl)-2-(8-(4,4,4-trifluorobutyl)-[1,2,4]triazolo[1,5-a]pyrazin-6-yl)-5H-pyrrolo[2,3-d]pyrimidin-6(7H)-one]	117%
Nc1nc(-c2cn3ncnc3c(CCCC(F)(F)F)n2)nc2c1C(c1ccc(C(F)(F)F)cc1)(C1CC1)C(=O)N2 (centres unmarked) [Example 35A, 4-amino-5-cyclopropyl-2-(8-(4,4,4-trifluorobutyl)-[1,2,4]triazolo[1,5-a]pyrazin-6-yl)-5-(4-(trifluoromethyl)phenyl)-5H-pyrrolo[2,3-d]pyrimidin-6(7H)-one]	164%
CC1(c2nnc(C(F)(F)F)o2)C(=O)Nc2nc(-c3cn4ncnc4c(CCCC(F)(F)F)n3)nc(N)c21 (centres unmarked) [Example 101A, 4-amino-5-methyl-2-(8-(4,4,4-trifluorobutyl)-[1,2,4]triazolo[1,5-a]pyrazin-6-yl)-5-(5-(trifluoromethyl)-1,3,4-oxadiazol-2-yl)-5H-pyrrolo[2,3-d]pyrimidin-6(7H)-one]	154%
CC1(c2ccc(C(F)F)cn2)C(=O)Nc2nc(-c3cn4ncnc4c(CCCC(F)(F)F)n3)nc(N)c21 (centres unmarked) [Example 43B, 4-amino-5-(5-(difluoromethyl)pyridin-2-yl)-5-methyl-2-(8-(4,4,4-trifluorobutyl)-[1,2,4]triazolo[1,5-a]pyrazin-6-yl)-5H-pyrrolo[2,3-d]pyrimidin-6(7H)-one]	69%
C[C@@]1(c2ccc(F)cc2)C(=O)Nc2nc(-c3cn4ncnc4c(CCCC(F)(F)F)n3)nc(N)c21 [Example 23A, (S)-4-amino-5-(4-fluorophenyl)-5-methyl-2-(8-(4,4,4-trifluorobutyl)-[1,2,4]triazolo[1,5-a]pyrazin-6-yl)-5,7-dihydro-6H-pyrrolo[2,3-d]pyrimidin-6-one]	163%

Results, then the compound that gave them:

Emax	Compound
95%	CCCCc1nc(-c2nc(O)c3c(n2)NC(=O)C3(C)c2ccc(C)cn2)cn2ncnc12 (centres unmarked) [Example 161B, 2-(8-butyl-[1,2,4]triazolo[1,5-a]pyrazin-6-yl)-4-hydroxy-5-methyl-5-(5-methylpyridin-2-yl)-5H-pyrrolo[2,3-d]pyrimidin-6(7H)-one]
88%	O=C1Nc2nc(-c3cn4ncnc4c(CCC(F)(F)C(F)(F)F)n3)nc(O)c2C1(c1cncc(F)c1)C1CC1 (centres unmarked) [Example 124B, 5-cyclopropyl-5-(5-fluoropyridin-3-yl)-4-hydroxy-2-(8-(3,3,4,4,4-pentafluorobutyl)-[1,2,4]triazolo[1,5-a]pyrazin-6-yl)-5H-pyrrolo[2,3-d]pyrimidin-6(7H)-one]
55%	CC1(c2ccc(C(F)F)cn2)C(=O)Nc2nc(-c3cn4ncnc4c(CCCC(F)(F)F)n3)nc(O)c21 (centres unmarked) [Example 181B, 4-hydroxy-5-(5-(difluoromethyl)pyridin-2-yl)-5-methyl-2-(8-(4,4,4-trifluorobutyl)-[1,2,4]triazolo[1,5-a]pyrazin-6-yl)-5H-pyrrolo[2,3-d]pyrimidin-6(7H)-one]
122%	C[C@@]1(c2ccc(F)cc2)C(=O)Nc2nc(-c3cn4ncnc4c(CCC(F)(F)C(F)(F)F)n3)ncc21 [Example 172A, (S)-5-(4-fluorophenyl)-5-methyl-2-(8-(3,3,4,4,4-pentafluorobutyl)-[1,2,4]triazolo[1,5-a]pyrazin-6-yl)-5,7-dihydro-6H-pyrrolo[2,3-d]pyrimidin-6-one]
169%	O=C1Nc2nc(-c3cn4ncnc4c(CCCC(F)(F)F)n3)nc(O)c2C1(c1ccc(F)cc1)C1CC1 (centres unmarked) [Example 139B, 5-cyclopropyl-5-(4-fluorophenyl)-4-hydroxy-2-(8-(4,4,4-trifluorobutyl)-[1,2,4]triazolo[1,5-a]pyrazin-6-yl)-5H-pyrrolo[2,3-d]pyrimidin-6(7H)-one]
73%	CCCCc1nc(-c2nc(O)c3c(n2)NC(=O)C3(C)c2ccc(C(F)(F)F)cn2)cn2ncnc12 (centres unmarked) [Example 159B, 2-(8-butyl-[1,2,4]triazolo[1,5-a]pyrazin-6-yl)-4-hydroxy-5-methyl-5-(5-(trifluoromethyl)pyridin-2-yl)-5H-pyrrolo[2,3-d]pyrimidin-6(7H)-one]
90%	CCCCc1nc(-c2nc(O)c3c(n2)NC(=O)C3(C)c2cccc(F)c2)cn2ncnc12 (centres unmarked) [Example 171A, 2-(8-Butyl-[1,2,4]triazolo[1,5-a]pyrazin-6-yl)-5-(3-fluorophenyl)-4-hydroxy-5-methyl-5,7-dihydro-6H-pyrrolo[2,3-d]pyrimidin-6-one]
